Data published in patent publication US20230390403A1, “COMPOSITIONS AND METHODS FOR DRUG DELIVERY” (North Carolina State University, priority 2020, published 2023).
Values belong to the molecule of their own block, whether it stands above or below them.

What was measured:
[1] = In vitro PTX release: hydrolysis of PTX succinic acid in PBS (HPLC); type: physicochemical; conditions: for half-life: PBS, 37° C.; for PTX-succinate remaining intact: after 24 hours
Protocol: In Vitro PTX Release. Hydrolytic studies of PTX succinic acid were carried out at 37° C. in PBS containing 0.01% DMSO and 0.1% Tween 80 at pH 7.4 and pH 6.5. 5.33 μM of PTX-succinic acid was dissolved in a 5 ml of medium and kept continuously stirring at 150 rpm/min. 50 μL of sample was removed at predetermined time intervals of 0, 24, 48, 72 and 96 hours and replaced with 50 μL of fresh media. Removed samples were mixed with 50% of acetonitrile and analyzed using Agilent 1290 HPLC system with Agilent 2.1×50 mm C18 column and mobile phase consisting of 60% ammonium formate and 40% acetonitrile. Concentration of PTX-SA and free PTX were determined using calibration curves.
The hydroxyl group at the C-2′ position is necessary for paclitaxel's anticancer activities. Therefore, the succinate ester must hydrolyze to achieve desired antitumor responses (41). We measured paclitaxel release from PTX-succinate in PBS at 37° C. in both neutral pH and the slightly acidic conditions (pH˜6.5) commonly observed in the tumor microenvironments. Disappearance of the PTX succinate peak and appearance of PTX peak was quantified using HPLC. […] After 24 hours, nearly 82% of PTX-succinate remained intact in acidic conditions, while 54% remained in the neutral condition. […] In contrast at the more acidic pH, paclitaxel continued its accumulation in the release media, with 60% of initial dose observed at 96 hours.

[2] = test system: dermal tissue; experiment: Intradermal anchoring of Cy7-maleimide (IVIS fluorescence); type: in vivo, CD-1 mice
Protocol: FIG. 12 is a plot showing the percent of the initial injection dose (% ID) maintained one day and one week following injection of Cy7-maleimide alone, Cy7-maleimide plus tris(2-carboxyethyl)phosphine (TCEP), and Cy7-maleimide plus mercaptoethanol (MCE).
To investigate whether maleimide molecules can anchor to dermal tissue by binding to available thiol groups, CD-1 mice were injected intradermally with Cy7-maleimide (50 uL of 0.2 mM) and monitored for fluorescence over 1 week using an IVIS imager. ICG/ICG excitation and emission filters were used for all IVIS images. Cy7-maleimide plus TCEP was used to attempt to increase free thiols by breaking disulfide bonds.

[3] = test system: U87 tumor; experiment: Intratumoral anchoring of Cy7-maleimide (IVIS fluorescence); type: in vivo, nude mice; conditions: 50 uL of 0.2 mM, 1 week after injection
Protocol: FIG. 13 illustrates the intratumoral anchoring of Cy7-maleimide after one week.
To investigate whether active maleimide molecules can anchor to tissue in a tumor, nude mice were injected subcutaneously with U87 tumor cells mixed with Matrigel. Once tumor reached 100 mm^3, Cy7-maleimide (50 uL of 0.2 mM) was injected intratumorally and monitored for fluorescence over 1 week using an IVIS imager. ICG/ICG excitation and emission filters were used for all IVIS images. […] This validated that anchorable drug compounds containing a maleimide tissue binding moiety could efficiently react with thiol moieties present in proteins found within tumors following intratumoral injection.

[4] = test system: U87 tumor; experiment: Tumor inhibition and survival after intratumoral or intravenous aldoxorubicin; type: in vivo, nude mice; conditions: intratumoral 10.5 mg/kg; compared to saline and intravenous aldoxorubicin
Description: FIGS. 14A-14D show the impact of intratumoral anchoring and local tumor release of a chemotherapeutic agent (aldoxorubicin) functionalized with a maleimide tissue binding moiety. FIG. 14A plots the percent change in tumor volume as a function of days after injection for mice treated with saline injection alone (control), intravenous injection of aldoxorubicin, and intratumoral injection of aldoxorubicin. FIG. 14B is a plot showing the probability of survival for mice treated with saline injection alone (control), intravenous injection of aldoxorubicin, and intratumoral injection of aldoxorubicin. FIG. 14C is a plot comparing tumor volume 7 days after treatment with saline injection alone (control), treatment with intravenous injection of aldoxorubicin, and treatment with intratumoral injection of aldoxorubicin. FIG. 14D is a plot comparing tumor volume 14 days after treatment with saline injection alone (control), treatment with intravenous injection of aldoxorubicin, and treatment with intratumoral injection of aldoxorubicin.
In a further proof-of-principle study, aldoxorubicin was used to validate the concept of anchoring (and subsequent local tumor release) of a chemotherapeutic agent functionalized with a maleimide tissue binding moiety. […] Tumor size and weight were measured at varying intervals following injection. […]

[5] = Aqueous solubility compared to paclitaxel; type: physicochemical
[6] = test system: KPC 4662 murine pancreatic tumor; experiment: In vivo assessment of PTX-sNHS induced apoptosis (cleaved caspase 3 staining); parameters: species or system C57BL/6 mice; conditions: 72 hours after single intratumoral injection, 20 mg/kg
Description: To assess the ability of intratumoral depots to release free paclitaxel and induce apoptotic tumor cell death, ectopic pancreatic tumor model was developed by subcutaneous inoculation of approximately 1*10^6 KPC 4662 murine pancreatic tumor cells in 1:1 PBS/matrigel (Corning/cat #354234) solution on the dorsal flanks of 8 week old female albino C57BL/6 mice (Charles River). Once the tumors were approximately 100 mm^3 in volume, animals were randomly divided into four groups to receive either no treatment or single intratumoral injection of vehicle (50% NMP: alfa aesar, #AA44063-K2, 50% Saline: cat #470302-026, VWR), free paclitaxel (Medkoo, cat #100690, 20 mg/kg) and paclitaxel-sNHS (n=3/group, 20 mg/kg). […] For quantification of apoptosis, CC-3-stained vs hematoxylin-stained areas were measured with respect to total tumor area (45, 46).
To investigate whether intratumoral injection of TRAP paclitaxel has therapeutic efficacy in vivo, we studied paclitaxel-induced apoptosis in the fibrous, syngeneic KPC 4662 pancreatic adenocarcinoma mouse model. […] For quantification of apoptosis, whole tissue sections were scanned to detect CC-3 positive areas and quantified to assess the percent of whole tumor area undergoing apoptosis. […] Quantification of apoptosis was performed by computationally separating CC-3 stained from hematoxylin stained areas (45). […]

Molecule: 2′-O-succinyl paclitaxel [PTX-succinate]
half-life ([1]; neutral pH): ~37 h
half-life ([1]; pH 6.5): ~56 h
free paclitaxel in release media, of initial dose ([1]; acidic pH (6.5), 96 hours): 60%
PTX-succinate remaining intact ([1]; acidic conditions (pH 6.5)): ~82%
PTX-succinate remaining intact ([1]; neutral condition): 54%
free paclitaxel released (maximum) ([1]; neutral pH, 96 hours): 32%

Molecule: C[N+]1=C(C=CC2=CC(=CC=C3N(CCCCCC(=O)NCCN4C(=O)C=CC4=O)c4ccccc4C3(C)C)CCC2)C(C)(C)c2ccccc21.[Cl-] [Cy7-maleimide, cyanine 7 maleimide]
skin irritation or skin toxicity ([2]; intradermal injection, monitored over 1 week): No skin irritation or skin toxicity was observed
injection dose maintained ([2]; intradermal, 50 uL of 0.2 mM, after 1 week): approximately 10%
injection dose maintained [3]: approximately 18%

Molecule: COc1cccc2c1C(=O)c1c(O)c3c(c(O)c1C2=O)C[C@@](O)(/C(CO)=N/NC(=O)CCCCCN1C(=O)C=CC1=O)C[C@@H]3O[C@H]1C[C@H](N)[C@H](O)[C@H](C)O1 [aldoxorubicin]
survival probability [4]: improved
tumor inhibition [4]: improved

aqueous solubility [5]: poorly soluble
Molecule: CC(=O)O[C@H]1C(=O)[C@@]2(C)[C@H]([C@H](OC(=O)c3ccccc3)[C@]3(O)C[C@H](OC(=O)[C@H](O)[C@@H](NC(=O)c4ccccc4)c4ccccc4)C(C)=C1C3(C)C)[C@]1(OC(C)=O)CO[C@@H]1C[C@@H]2O [paclitaxel]
apoptotic area (CC-3 stained), of total tumor area [6]: 27%
necrosis, of tumor area ([6]; color saturation analysis): ~30%
